Our source for the IC50 and Activity values is ChEMBL document CHEMBL1126408, “CP-70,030 and CP-75,998: The first non-peptide antagonists of bombesin and gastrin releasing peptide” (Bioorg Med Chem Lett, 1992).

The source made the active and inactive calls. The rule behind the calls is not given here.

In assay [1] the target is Gastrin-releasing peptide receptor (Rattus norvegicus, UniProt P52500). Nature of the assay: Compound was evaluated for displacement of radiolabeled [I-125]GRP from rat brain receptor; 1.5-3 uM.
Gastrin-releasing peptide receptor, sequence (P52500 whole entry): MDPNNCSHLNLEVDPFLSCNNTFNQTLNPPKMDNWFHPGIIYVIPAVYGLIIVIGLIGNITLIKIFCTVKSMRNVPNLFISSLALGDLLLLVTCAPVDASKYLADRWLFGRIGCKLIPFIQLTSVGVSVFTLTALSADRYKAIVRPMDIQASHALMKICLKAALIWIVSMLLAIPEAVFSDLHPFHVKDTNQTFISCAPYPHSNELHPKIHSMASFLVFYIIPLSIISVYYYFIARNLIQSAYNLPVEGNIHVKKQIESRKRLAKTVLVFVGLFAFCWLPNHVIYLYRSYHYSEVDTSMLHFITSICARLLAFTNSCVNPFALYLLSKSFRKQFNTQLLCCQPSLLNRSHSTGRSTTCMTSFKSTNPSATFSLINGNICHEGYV
The species named for assay [2] is Rattus norvegicus. As to the kind of experiment: Agonistic activity up to a conc 30 uM measured as elevation of inositol phosphate production in absence of bombesin in rat pituitary GH3 cells; NA is no measurable agonist activity. In kind it is functional, cell-based.
The species entered for assay [3] is Rattus norvegicus. As to the kind of experiment: Antagonistic activity as a measure of bombesin-induced phosphoinositide turnover in rat pituitary GH3 cells; 1.5-3 uM. It is filed as functional, cell-based.
Assay [4] concerns the target Gastrin-releasing peptide receptor (Homo sapiens) (UniProt P30550). Nature of the assay: Compound up to a conc of 32 uM was tested for displacement of radiolabeled GRP from its receptors on bombesin-responsive human SCLC cell line N592; […].

Gastrin-releasing peptide receptor (Homo sapiens), sequence (P30550 whole entry, looked up): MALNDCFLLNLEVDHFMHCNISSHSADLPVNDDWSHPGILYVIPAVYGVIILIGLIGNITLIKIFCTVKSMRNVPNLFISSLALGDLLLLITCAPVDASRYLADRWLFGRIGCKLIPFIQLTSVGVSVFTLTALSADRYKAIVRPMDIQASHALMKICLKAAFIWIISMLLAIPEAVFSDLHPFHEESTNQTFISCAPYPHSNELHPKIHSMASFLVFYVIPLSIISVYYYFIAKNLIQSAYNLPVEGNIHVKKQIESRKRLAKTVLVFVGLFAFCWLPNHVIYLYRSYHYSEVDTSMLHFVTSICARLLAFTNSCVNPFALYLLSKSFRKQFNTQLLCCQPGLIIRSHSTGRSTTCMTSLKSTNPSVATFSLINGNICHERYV

In general, IC50 refers to the point on the concentration scale where inhibition reaches its midpoint. High values mean lower potency, low ones higher potency. Turning to `O=C1NC(=O)C2(N1)C(=O)N(Cc1ccc(Cl)c(Cl)c1)c1ncc(Br)cc12` (stereo not drawn), the IC50 in assay [1] and in assay [3] was 1.5 µM throughout. For the same compound, the outcome in assay [2] and in assay [4] was inactive.

Turning to `CCN1C(=O)/C(=C/c2cc(C(C)(C)C)c(O)c(C(C)(C)C)c2)c2cc(OCc3ccccc3C(=O)O)ccc21`, the IC50 in assay [1] and in assay [3] was 1.5 µM each time. The result in assay [2] and in assay [4] was inactive.
